Consider 1 compound from paper PMC5372168, “Serine protease SP105 activates prophenoloxidase in Asian corn borer melanization, and is regulated by serpin-3” (Scientific Reports, 2017).

Structures are written as SMILES.

This assay deals with T1, Asian corn borer prophenoloxidase-2 (OfPPO2; PO2) (Ostrinia furnacalis, UniProt Q2I355).
T1 construct: coding region of mature PPO2 in pET28a, E. coli BL21(DE3), purified
T1 sequence (Q2I355 1-692): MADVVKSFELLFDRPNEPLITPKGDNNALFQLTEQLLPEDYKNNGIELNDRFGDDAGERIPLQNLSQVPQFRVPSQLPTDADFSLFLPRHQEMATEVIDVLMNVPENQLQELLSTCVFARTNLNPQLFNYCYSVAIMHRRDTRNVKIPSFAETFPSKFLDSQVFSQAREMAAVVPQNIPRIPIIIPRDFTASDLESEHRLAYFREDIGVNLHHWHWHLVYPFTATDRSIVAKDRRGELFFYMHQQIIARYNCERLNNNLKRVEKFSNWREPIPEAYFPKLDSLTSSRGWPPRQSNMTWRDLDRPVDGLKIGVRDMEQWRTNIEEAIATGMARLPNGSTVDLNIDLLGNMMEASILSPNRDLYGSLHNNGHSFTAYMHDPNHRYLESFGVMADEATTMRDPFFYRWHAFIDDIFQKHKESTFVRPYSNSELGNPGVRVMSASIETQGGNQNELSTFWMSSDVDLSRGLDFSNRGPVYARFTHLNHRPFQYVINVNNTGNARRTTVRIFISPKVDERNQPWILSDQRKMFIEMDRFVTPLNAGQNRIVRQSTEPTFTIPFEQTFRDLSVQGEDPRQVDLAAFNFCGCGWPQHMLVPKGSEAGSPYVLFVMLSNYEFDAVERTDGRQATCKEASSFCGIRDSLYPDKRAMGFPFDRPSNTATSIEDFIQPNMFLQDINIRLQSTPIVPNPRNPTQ
Briefly: phenoloxidase assay, A490. To be noted: PPO2 activated by Factor Xa-activated SP105Xa, 37 °C 30 min. It counts as biochemical.

For `NCCc1ccc(O)c(O)c1` [dopamine], the “phenoloxidase assay, A490” value is “PO activity in the reaction mixtures was measured using dopamine as substrate”.
